Consider four molecules from US20240197897A1, “HETEROTANDEM BICYCLIC PEPTIDE COMPLEXES” (Bicycle Tx Limited, priority 2021, published 2024).

The test system of one data set is NK cells. Put plainly: Degranulation assay (CD107a surface expression on NK cells co-cultured with A549). The class given is cell-based, human. Particulars: for upregulation of CD107a on NK cell surface: NK cells with A549 cells, post-treatment, FIG. 1. The procedure: Tumor cells can be recognized and killed by CD8+T-cytotoxic and NK cells through the immune secretion of lytic granules that kill target cells. This process involves the fusion of the granule membrane with the cytoplasmic membrane of the immune effector cell, resulting in surface exposure of CD107a (LAMP1). Membrane expression of CD107a constitutes a marker of immune cell activation and cytotoxic degranulation. EphA2/NKp46 or EphA2/CD16a heterotandem bicyclic peptide complexes were evaluated for activation of NK cells using a degranulation assay.
On the day of the experiment, medium was prepared by supplementing RPMI-1640 (Gibco™ 11875-093; with L-glutamine) with 10% heat-inactivated fetal bovine serum (FBS; Corning® 35-011-CV), 10 mM HEPES (Gibco™ 15-630-080), and 1% Penicillin Streptomycin (Corning™ 30-002-CI), herein referred to as working medium. Previously isolated human peripheral blood mononuclear cells (PBMCs), from whole blood, were quick thawed in a water bath and washed once at 500 rpm for 5 minutes in 10 mL of prewarmed working medium. PBMC pellet was then resuspended to concentration of 5×10^6 cells/mL in working medium and rested overnight (12-18 hours) horizontally in a tissue-culture coated flask (T-183; CELLTREAT Scientific 229351). Moreover, Ephrin type-A receptor (EphA2) expressing human lung carcinoma cell line A549 (ATCCR CCL-185; cells were grown and maintained according to manufacturer's recommendation) were detached from the culture vessel using Trypsin/EDTA and washed once at 500 rpm for 5 minutes in 15 mL of prewarmed working medium. Cell pellet was then resuspended in working medium at a concentration of 1×10^5 cells/mL. Subsequently, 100 μL of cell suspension was plated in a flat-bottom tissue-culture coated 96-well plate (Greiner CellStar® 655180) and rested overnight (12-18 hours).
Post-overnight incubation, PBMCs were removed from the flask and washed once at 500 rpm for 5 minutes in 10 mL of prewarmed working medium. […]

Data set [1] can be described thus: NK cytotoxicity assay (NK:HT1080-luc co-culture, luciferase readout). Type of data set: cell-based, human. As to conditions: NK:HT1080-luc co-culture, 24 hours, four-parameter logistic regression; FIGS. 2-4, 6-8, 10; read-out: EC50 NK cytotoxicity (tumor cell killing). How it is done: (§1) Heterotandem bicyclic peptide complexes were evaluated for NK functional readouts (cytotoxicity and cytokine secretion) in NK-tumor cell line co-cultures.
(§2) NK cells were isolated using a negative isolation kit (STEMCELL™ Technologies 17955) from the total PBMC population purified from whole blood. NK cell pellet was then resuspended in DMEM medium (Corning™ 10-013-CV) with 10% heat-inactivated fetal bovine serum (FBS; Corning® 35-011-CV), 10 mM HEPES (Gibco™ 15-630-080), and 1% Penicillin Streptomycin (Corning™ 30-002-CI), and 50 IU/mL human IL-2 (Miltenyi Biotec® 130-097-748), at a concentration of 4×10^5 cells/mL. For the NK cell cytotoxicity assays, 50 μL (2×10^4) of cell suspension was plated in the 96-well plate (Grenier® Bio One™ 655090) containing 50 μl (4×10^3) HT1080-luc cells (ATCC® CCL-121-luc2) in DMEM (Gibco™ 11875-093; with L-glutamine) with 10% heat-inactivated fetal bovine serum (FBS; Corning® 35-011-CV), 10 mM HEPES (Gibco™ 15-630-080), and 1% Penicillin Streptomycin (Corning™ 30-002-CI). […] The plates were then incubated for 24 hours at 37° C., 5% CO2. Post-incubation, plates was centrifuged at 250×g for 5 minutes and 100 μl supernatant discarded. Samples were then incubated 10 minutes with 50 μl Bright-Glo™ Luciferase Assay system (Promega™ E2620). Luminescence upon excitation at 570 nm was read using a CLARIOstar® plate-reader with MARS Data Analysis Software™. Data was fit to a four-parameter non-linear regression in GraphPad Prism™ 8.0.2 to generate an EC50 value.

A further data set relates to HT1080-luc cells. The description is as above. Type of data set: cell-based, human. Particulars: in comparison to NK:HT1080-luc co-culture without heterotandem complex (NK-TICA). The procedure: as §1, §2
Data set [2] concerns the target EPH receptor A2 (ephrin type-A receptor 2) (human) (UniProt P29317). Nature of the data set: cell-based or functional assay.
In data set [3] the target is FcγRIIIA (also known as CD16a) (human) (UniProt P08637). Nature of the data set: cell-based or functional assay.
Sequence of FcγRIIIA (also known as CD16a) (human) (P08637 17-254): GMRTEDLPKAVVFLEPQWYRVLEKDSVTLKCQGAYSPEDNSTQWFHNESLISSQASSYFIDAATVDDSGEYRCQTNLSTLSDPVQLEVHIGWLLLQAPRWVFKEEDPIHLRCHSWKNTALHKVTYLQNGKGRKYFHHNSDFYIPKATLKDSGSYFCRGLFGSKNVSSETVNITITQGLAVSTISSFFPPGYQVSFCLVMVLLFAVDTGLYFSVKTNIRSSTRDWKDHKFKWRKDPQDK
A further data set deals with NKp46 (human) (UniProt O76036). Nature of the data set: cell-based or functional assay.
Sequence of NKp46 (human) (O76036 22-304): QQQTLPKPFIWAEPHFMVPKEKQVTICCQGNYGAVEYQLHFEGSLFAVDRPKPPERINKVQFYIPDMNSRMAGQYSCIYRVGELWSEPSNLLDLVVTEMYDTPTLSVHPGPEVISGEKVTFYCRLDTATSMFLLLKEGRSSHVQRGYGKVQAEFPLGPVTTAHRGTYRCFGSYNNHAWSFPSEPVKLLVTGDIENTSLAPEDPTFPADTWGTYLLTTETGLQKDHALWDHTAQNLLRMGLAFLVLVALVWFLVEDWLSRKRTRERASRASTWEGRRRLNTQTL

Starred links: 1 amine or outer side, 2 acyl side, 3 side chain; linkers in the order of their positions; H or OH if unused. Positions of bridges follow the written chain, without caps; N, C: chain ends. Non-standard residues stand in square brackets, D forms with d. Chains are numbered I, II in the order given. No end group written: not given here. *: point of attachment. TBMT = 2,4,6-tris(bromomethyl)-s-triazine, molecular scaffold, C(c1nc(C[*:2])nc(C[*:3])n1)[*:1]; TATA = O=C(CC[*:1])N1CN(C(=O)CC[*:2])CN(C(=O)CC[*:3])C1; Hyp = O=C(O)[C@@H]1C[C@@H](O)CN1; hArg = N=C(N)NCCCC[C@H](N)C(=O)O; Cba = N[C@@H](CC1CCC1)C(=O)O; Pent4ynoyl = C#CCCC(=O)*

Sequence of EPH receptor A2 (ephrin type-A receptor 2) (human) (P29317 24-976): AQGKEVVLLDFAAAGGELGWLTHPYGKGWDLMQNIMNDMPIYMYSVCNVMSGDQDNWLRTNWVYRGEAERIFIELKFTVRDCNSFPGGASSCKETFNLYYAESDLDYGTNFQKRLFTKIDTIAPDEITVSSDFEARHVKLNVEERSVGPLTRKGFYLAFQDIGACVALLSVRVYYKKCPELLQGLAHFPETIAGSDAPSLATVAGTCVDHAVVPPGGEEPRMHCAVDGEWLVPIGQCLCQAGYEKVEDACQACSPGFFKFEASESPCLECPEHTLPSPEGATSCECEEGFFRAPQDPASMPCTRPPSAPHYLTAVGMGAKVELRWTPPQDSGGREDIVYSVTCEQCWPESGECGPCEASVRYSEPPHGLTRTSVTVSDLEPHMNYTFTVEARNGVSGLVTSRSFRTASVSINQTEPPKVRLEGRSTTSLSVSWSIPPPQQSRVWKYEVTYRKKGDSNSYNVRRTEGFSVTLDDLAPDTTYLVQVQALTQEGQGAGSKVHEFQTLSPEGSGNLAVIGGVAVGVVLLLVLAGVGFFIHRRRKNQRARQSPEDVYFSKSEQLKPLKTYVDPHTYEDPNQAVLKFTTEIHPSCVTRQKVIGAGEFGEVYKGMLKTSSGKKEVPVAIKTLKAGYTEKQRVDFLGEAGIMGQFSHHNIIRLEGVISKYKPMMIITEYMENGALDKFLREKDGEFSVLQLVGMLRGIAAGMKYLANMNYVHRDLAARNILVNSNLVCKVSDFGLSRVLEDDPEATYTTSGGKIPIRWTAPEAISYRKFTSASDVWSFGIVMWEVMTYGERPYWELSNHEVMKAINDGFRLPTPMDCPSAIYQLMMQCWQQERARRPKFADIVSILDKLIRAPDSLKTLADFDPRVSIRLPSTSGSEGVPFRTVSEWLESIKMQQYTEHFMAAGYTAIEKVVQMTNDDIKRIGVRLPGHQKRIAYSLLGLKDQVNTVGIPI

“BCY15911: EphA2 specific peptide BCY9594 linked to two CD16a specific peptides (BCY13886) via N-(acid-PEG3)-N-bis(PEG3-azide) linker (peptide 1 A[hArg]DC[Hyp]LVNPLCLHP[dD]W[hArg]C; peptide 2 ACVGLEELGPCSDLCAK(Pent4ynoyl); linker I:4-I:11-I:18 via TATA; linker II:2-II:11-II:15 via TBMT; also: chain 1 N-terminus and chain 2 K(PYA) joined through N-(acid-PEG3)-N-bis(PEG3-azide) linker, two copies of chain 2)”: the “upregulation of CD107a on NK cell surface” value in the data set on NK cells is given as “dose-dependent upregulation of CD107a”. The EC50 (as a rule, the concentration at which the effect is half-maximal) in the data set with NK cells (NK cells with EphA2 expressing A549 cells, 4 hours, flow cytometry, read-out: EC50 Degranulation Geometric Mean CD107a) worked out at 99.8 nM.

As for `CC(C)C[C@@H]1NC(=O)[C@H](Cc2ccc(O)cc2)NC(=O)[C@H](CC(=O)O)NC(=O)[C@@H]2CCCN2C(=O)[C@H](CC(C)C)NC(=O)[C@H](Cc2ccc(O)cc2)NC(=O)[C@@H](NC(=O)[C@H](C)N)CSCCC(=O)N2CN3CN(C2)C(=O)CCSC[C@@H](C(=O)N[C@@H](C)C(=O)N[C@H](CCCCNC(=O)CCc2cn(CCOCCOCCOCCN(CCOCCOCCOCCC(=O)N[C@@H](C)C(=O)N[C@@H](CCCCNC(=N)N)C(=O)N[C@@H](CC(=O)O)C(=O)N[C@H]4CSCCC(=O)N5CN6CN(C5)C(=O)CCSC[C@H](NC(=O)[C@H](CC(C)C)NC(=O)[C@@H]5CCCN5C(=O)[C@H](CC(N)=O)NC(=O)[C@H](C(C)C)NC(=O)[C@H](CC(C)C)NC(=O)[C@@H]5C[C@@H](O)CN5C4=O)C(=O)N[C@@H](CC(C)C)C(=O)N[C@@H](Cc4c[nH]cn4)C(=O)N4CCC[C@H]4C(=O)N[C@H](CC(=O)O)C(=O)N[C@@H](Cc4c[nH]c5ccccc45)C(=O)N[C@@H](CCCCNC(=N)N)C(=O)N[C@H](C(N)=O)CSCCC6=O)CCOCCOCCOCCn4cc(CCC(=O)NCCCC[C@@H](NC(=O)[C@H](C)NC(=O)[C@@H]5CSCCC(=O)N6CN7CN(C6)C(=O)CCSC[C@H](NC(=O)[C@H](CC(C)C)NC(=O)[C@H](Cc6ccc(O)cc6)NC(=O)[C@H](CC(=O)O)NC(=O)[C@@H]6CCCN6C(=O)[C@H](CC(C)C)NC(=O)[C@H](Cc6ccc(O)cc6)NC(=O)[C@@H](NC(=O)[C@H](C)N)CSCCC7=O)C(=O)NCC(=O)N[C@@H](CC(=O)O)C(=O)N[C@@H](CCC(=O)O)C(=O)N[C@@H](Cc6ccc(O)cc6)C(=O)N5)C(N)=O)nn4)nn2)C(N)=O)NC(=O)[C@H](Cc2ccc(O)cc2)NC(=O)[C@H](CCC(=O)O)NC(=O)[C@H](CC(=O)O)NC(=O)CNC(=O)[C@H](CSCCC3=O)NC1=O` [BCY15664], the “upregulation of CD107a on NK cell surface” value in the data set on NK cells is “dose-dependent upregulation of CD107a”. Besides, the EC50 in data set [1] amounted to 0.021 nM. For the same molecule, in the data set with HT1080-luc cells, the “effect on tumor cell killing by NK cells, in words” value was “dose-dependent NK cell response to kill”.

B1: heterotandem bicyclic peptide complex BCY15911 (peptide)
peptide 1: A[hArg]DC[Hyp]LVNPLCLHP[dD]W[hArg]C
peptide 2: ACVGLEELGPCSDLCAK(Pent4ynoyl)
modifications: linker I:4-I:11-I:18 via TATA; linker II:2-II:11-II:15 via TBMT; also: EphA2:CD16a 1:2, two copies of chain 2 on the linker, X5, X17: HyP or HArg, linker at chain B 17 to a chain's N-terminus via N-(acid-PEG3)-N-bis(PEG3-azide) linker
As to B1, the EC50 Degranulation Geometric Mean CD107a in data set [2] and in data set [3] was 99.8 nM in each case.

B2: heterotandem bicyclic peptide complex BCY20793 (peptide)
peptide 1: A[hArg]DC[Hyp]LVNPLCLHP[dD]W[hArg]C
peptide 2: Ac-CY[Cba]PDYLC[dA]DEYCK(Pent4ynoyl)
peptide 3: ACRWHFSEPCGAWCAK(Pent4ynoyl)
modifications: linker I:4-I:11-I:18, II:1-II:8-II:13 via TATA; linker III:2-III:10-III:14 via TBMT; also: three peptides joined on N-(PEG3-acid)-N-(PEG3-azide)-N-(PEG3-NH-AcAz) linker (triazole to PYA of chains 2 and 3)
In the case of B2, the EC50, NK cytotoxicity assay (HT1080-luc luminescence) (in data set [3]; with NKp46 (human)) was 0.0065 nM throughout.
